Results reported in patent US20230381168A1, “ADJUNCTIVE THERAPY FOR DEPRESSION” (ANeuroTech IP BV, priority 2020, published 2023).
“Also recorded” adds a separate entry of the source.

Experiments:
[1] = tested on: patients suffering from moderate to severe MDD; assay: double-blind randomized multi-centre study, reported side effects (treatment emergent adverse effects); format: in vivo, human
[2] = tested on: subjects with a medical history of major depressive disorder and current insomnia; assay: cognitive performance by Mini Mental State Examination (MMSE) in treated case subjects PT1-PT3; format: in vivo, human
Procedure: During the last three weeks of this period, the subject was treated with transcranial anodal direct current stimulation (tDCS) in daily sessions of 30 minutes in the morning every day of the week except Saturday and Sunday. The tDCS dose was 2 mA. The anode was placed over the left dorsolateral prefrontal cortex and the cathode was placed over the right dorsolateral prefrontal cortex. […] This combined treatment was continued for a following 3 weeks.

[3] = tested on: subject with medical history of major depression and severe insomnia; assay: sleep analysis with full PSG battery (EEG, EMG, infra-red video and sound): clinical relevant restlessness events; format: in vivo, human; conditions: PT1, after 3 weeks pipamperone 20 mg/day with tDCS
Source text: While during sleep the subject had no own noise making behaviour with an observed stable background noise level of +/−40 dB in the room, during these events the subject produced clear-cut enhancement of noise in the room with acute values of more than 50 dB combined with observable muscle activity (as observed by the EMG pattern), a state of being awake (as observed by the EEG) and an agitated behaviour (as observed by the clinical inspection infra-red video images).

[4] = tested on: participants with major depressive disorder on continuing SSRI/SNRI; assay: placebo-controlled crossover study, PROMIS cognitive function questionnaire (subjective cognitive function); format: in vivo, human
Procedure: Eligible participants were admitted to the study center on Day 1 of Period 1 for first dosing. […] The cognitive function was measured using the PROMIS cognitive function questionnaire, completed in the morning, midday and evening. […] A higher T-score reflects a better cognitive functioning of the participant. […] Positive responders were further evaluated for the key secondary objective.

[5] = tested on: participants with major depressive disorder on continuing SSRI/SNRI; assay: placebo-controlled crossover study, sleep quality questionnaire; format: in vivo, human; conditions: all participants; 14 mg
Procedure: Participants randomized to receive Treatment B were administered placebo containing drinkable water with […] flavor. Each study week the participants received 10 mL of their study medication in an amber glass bottle with dropper containing 200 droplets. […] The sleep quality of the participants was measured using a scale going from very bad (1) to excellent (5). This questionnaire was only completed in the morning.

[6] = tested on: participants with major depressive disorder on continuing SSRI/SNRI; assay: placebo-controlled crossover study, PROMIS Sleep-related impairments questionnaire; format: in vivo, human
Procedure: Participants randomized to receive Treatment B were administered placebo containing drinkable water with […] flavor. Each study week the participants received 10 mL of their study medication in an amber glass bottle with dropper containing 200 droplets. […] The sleep-related impairments were assessed using the PROMIS Sleep-related impairments questionnaire, completed in the morning, midday and evening. […] A higher T-score reflects more sleep-related impairments during the day.

[7] = tested on: participants with major depressive disorder on continuing SSRI/SNRI; assay: placebo-controlled crossover study, Karolinska Sleepiness Scale; format: in vivo, human
Procedure: Participants randomized to receive Treatment B were administered placebo containing drinkable water with […] flavor. Each study week the participants received 10 mL of their study medication in an amber glass bottle with dropper containing 200 droplets. […] The sleepiness of the participants was also be measured using the Karolinska Sleepiness Scale going from very sleepy, having great difficulty staying awake, fighting sleep (9) to extremely alert (1). This questionnaire was completed in the morning, midday and evening.

[8] = tested on: participants with major depressive disorder on continuing SSRI/SNRI; assay: placebo-controlled crossover study, mood questionnaire; format: in vivo, human
Procedure: Participants randomized to receive Treatment B were administered placebo containing drinkable water with […] flavor. Each study week the participants received 10 mL of their study medication in an amber glass bottle with dropper containing 200 droplets. […] The mood of the participants was also be measured using a questionnaire which evaluated going from very happy, relaxed, excited, not worried and fearful at all (1) to very sad, not relaxed and excited at all, extremely worried and fearful (5). This questionnaire was completed in the morning and in the evening.

[9] = tested on: patients suffering from moderate to severe MDD; assay: double-blind randomized multi-centre study, MADRS assessed by the clinical rater; format: in vivo, human
Procedure: Cognitive enhancement and suicidal thoughts were evaluated respectively according to the Montgomery-Asberg Depression Rating Scale (MADRS) item 6 and item 10, after 10 weeks of study treatment as assessed by the clinical rater. […] Remission rate of reduced ability to read/communicate is defined as a MADRS Item 6 total score at Baseline (Day 1)>3 to (end of) Week 10≤3 at Week 10 as assessed by the clinical rater. […] Change from baseline in total score on MADRS after the indicated period of study treatment as assessed by the clinical rater. […] Remission is defined as a MADRS total score ≤10 at the indicated period as assessed by the clinical rater. An international, double-blind, centrally randomized (stratified), multi-centre study in more than 400 patients suffering from moderate to severe MDD in up to 40 sites in the USA was conducted. […] Study visits were conducted 1, 2, 3, 4, 6, 8 and 10 weeks after study treatment initiation. Possible withdrawal effects were assessed 1 week after study treatment withdrawal. After 2, 3, 4, 6, and 10 weeks, patients were evaluated.

[10] = tested on: MDD patients on antidepressant (partial responsive depression); assay: analysis of 62 MDD patients treated with adjunctive low-dose pipamperone; format: in vivo, human
[11] = biological target: T1, D4 receptor (Homo sapiens, UniProt P21917); conditions: cited from earlier work
T1 sequence (P21917 1-419): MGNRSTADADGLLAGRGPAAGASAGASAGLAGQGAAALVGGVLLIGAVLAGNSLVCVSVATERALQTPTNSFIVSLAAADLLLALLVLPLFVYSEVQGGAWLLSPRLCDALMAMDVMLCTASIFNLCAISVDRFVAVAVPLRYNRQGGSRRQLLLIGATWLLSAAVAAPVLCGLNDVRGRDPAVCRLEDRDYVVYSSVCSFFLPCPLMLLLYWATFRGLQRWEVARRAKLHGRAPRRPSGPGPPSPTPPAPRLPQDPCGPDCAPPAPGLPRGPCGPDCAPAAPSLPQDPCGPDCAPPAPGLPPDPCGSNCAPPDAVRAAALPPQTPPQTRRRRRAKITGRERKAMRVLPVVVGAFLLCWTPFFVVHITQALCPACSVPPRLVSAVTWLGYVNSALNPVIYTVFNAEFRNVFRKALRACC

[12] = biological target: H1 receptor (Homo sapiens, UniProt P35367); conditions: cited from earlier work
H1 receptor, sequence (P35367 whole entry): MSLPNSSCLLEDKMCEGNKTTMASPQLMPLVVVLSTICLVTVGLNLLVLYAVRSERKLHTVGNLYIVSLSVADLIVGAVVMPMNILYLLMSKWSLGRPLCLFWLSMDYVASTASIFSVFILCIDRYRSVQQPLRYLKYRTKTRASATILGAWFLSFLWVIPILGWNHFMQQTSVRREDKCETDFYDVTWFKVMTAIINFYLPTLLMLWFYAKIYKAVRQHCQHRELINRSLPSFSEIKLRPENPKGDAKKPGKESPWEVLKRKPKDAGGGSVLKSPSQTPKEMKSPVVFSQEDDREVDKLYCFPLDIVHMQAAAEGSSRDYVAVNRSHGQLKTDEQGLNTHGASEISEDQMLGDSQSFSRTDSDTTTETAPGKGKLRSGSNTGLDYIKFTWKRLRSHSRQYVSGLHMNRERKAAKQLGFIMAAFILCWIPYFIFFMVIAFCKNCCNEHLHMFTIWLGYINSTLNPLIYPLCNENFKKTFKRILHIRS

[13] = tested on: mACh receptors; conditions: cited from earlier work
[14] = prematurely discontinued patients
[15] = in particular after 6 weeks, even more so after 10 weeks

CN(C)CCCC1(c2ccc(F)cc2)OCc2cc(C#N)ccc21 (stereo not shown) [Citalopram, citalopram]
Decreased Appetite ([1]; all patients): 5.7%
Diarrhoea ([1]; all patients): 9.7%
Nausea ([1]; all patients): 16%
Somnolence ([1]; all patients): 11.4%
Decreased Appetite [1, 14]: 9%
Diarrhoea [1, 14]: 11%
Nausea [1, 14]: 18%
Somnolence [1, 14]: 16%
Vomiting [1, 14]: 9%

NC(=O)C1(N2CCCCC2)CCN(CCCC(=O)c2ccc(F)cc2)CC1 [pipamperone, 1′-[3-(p-fluorobenzoyl)propyl]-[1,4′-bipiperidine]-4′-carboxamide]
MMSE score ([2]; PT1, after 3 weeks pipamperone 20 mg/day combined with 15 sessions tDCS 2 mA, 27 before treatment): 30
MMSE total score ([2]; PT1, another 2 months after tDCS was terminated, pipamperone 20 mg/d continued): 30 /30
MMSE ([2]; PT2 (severe cognitive deterioration, 18/30 before), after 6 weeks of treatment): 17 /30
MMSE ([2]; PT3 (28/30 before), after treatment): 30 /30
restored cognitive performance ([2]; PT3, continuous (6 months) intake of low dose pipamperone): sustained
insomnia [3]: improvement
reduction of the clinical restlessness events [3]: 75%
number of clinical restlessness events at night after treatment ([3]; 4 before): 1
SUBJECTIVE COGNITIVE DECLINE: NON RESPONDER ([4]; 14 mg ad noctum add-on, 6 participants): 17%
SUBJECTIVE COGNITIVE DECLINE: RESPONDER ([4]; 14 mg ad noctum add-on, 6 participants, Fisher exact test 0.0006, p<0.05): 50%
subjective cognitive function versus placebo ([4]; 14 mg, 14 days, add-on to SSRI/SNRI): statistical significant (p<0.05) improvement
improvement of cognitive functioning compared with placebo ([4]; the two participants with high MADRS item 6 score (XR0 and WL4), 14 mg): highest improvement
sleep quality compared with placebo [5]: better quality of sleep
Sleep-related impairments, pipamperone 14 mg vs placebo [6]: no clear difference
Karolinska Sleepiness Scale, pipamperone 14 mg vs placebo [7]: no clear difference
Mood, pipamperone 14 mg vs placebo [8]: no clear difference
cognitive enhancement rate (remission of reduced ability to read/communicate, MADRS item 6) compared to citalopram ([9]; after 10 weeks of treatment): superior
cognitive function (MADRS item 6, change from baseline) compared to citalopram ([9]; after 10 weeks, 15 mg QD): Statistically significant superior effect; also recorded: statistically significant enhancement
suicidal thoughts (MADRS item 10, change from baseline) compared to citalopram ([9]; after 10 weeks, 15 mg QD): Statistically significant superior effect; also recorded: significant reduction
decrease of severity of major depressive disorder (MADRS total score) compared to citalopram [9, 15]: superior decrease
proportion of patients in remission of major depressive disorder (MADRS total score ≤10) compared to citalopram [9, 15]: superior increase
Decreased Appetite ([1]; all patients): 1.6%
Diarrhoea ([1]; all patients): 0.5%
Nausea ([1]; all patients): 7.7%
Somnolence ([1]; all patients): 6.6%
side effects overall (treatment emergent adverse effects, TEAE) compared to citalopram ([1]; all patients and prematurely discontinued patients): low amount of side effects
Decreased Appetite [1, 14]: 0%
Diarrhoea [1, 14]: 0%
Nausea [1, 14]: 6%
Somnolence [1, 14]: 8%
Vomiting [1, 14]: 0%
side effects in subjects who discontinued the trial prematurely [1, 14]: significantly fewer side effects
residual symptoms anhedonia and cognitive impairment ([10]; adjunctive 15 mg daily, MDD remittors): resolved
patients still responding to adjunctive treatment ([10]; after at least more than 1 year of treatment, n=53 of 62): 85%
tolerability of the treatment ([10]; long-term adjunctive treatment): extremely good tolerability
patients in sustained remission ([10]; printed as 'of these responders', n=25): 40%
cases that went into sustained remission after switch from existing adjunctive treatment ([10]; switched from quetiapine, amisulpride, risperidone or clozapine): 6 out of these 8 cases
affinity for the D4 receptor over the D2 receptor [11]: 15 fold
affinity for the H1 receptor [12]: low and likely insignificant
affinity for the mACh receptors [13]: low and likely insignificant
